Laboratory results published in ChEMBL document CHEMBL1287731, “Synthesis and in vitro inhibitory activity of matrine derivatives towards pro-inflammatory cytokines” (Bioorg Med Chem Lett, 2010).

How the values were obtained:
RAW264.7 [1] = assay: Antiinflammatory activity in mouse RAW264.7 cells assessed as inhibition of LPS-induced TNF-alpha production after 6 hrs by ELISA; assay type: functional, cell-based; settings: for IC50: RAW264.7, 6 h
RAW264.7 [2] = assay: Cytotoxicity against mouse RAW264.7 cells; assay type: cell-based
RAW264.7 [3] = assay: Antiinflammatory activity in mouse RAW264.7 cells assessed as inhibition of LPS-induced TNF-alpha production at 10 uM after 6 hrs by ELISA; assay type: functional; settings: RAW264.7, 6 h
RAW264.7 [4] = assay: Inhibition of NF-kappaB transcriptional activity in LPS-stimulated mouse RAW264.7 cells by dual luciferase reporter assay relative to renilla luciferase activity; assay type: cell-based

Compound	inhibition (RAW264.7 [1])	IC50 (RAW264.7 [1]) [µM]	Activity (RAW264.7 [2])	inhibition at 10 µM (RAW264.7 [3]) [%]	fold change (FC) (RAW264.7 [4])
OCCOCCN[C@@H]1CC(=S)N2C[C@@H]3CCCN4CCC[C@@H]([C@H]34)[C@H]2C1	Dose-dependent effect	57.5	Non-toxic	8.4	4.75
C=CCN[C@@H]1CC(=S)N2C[C@@H]3CCCN4CCC[C@@H]([C@H]34)[C@H]2C1	Dose-dependent effect	9.4	Non-toxic	52.5	1.47
OCCN[C@@H]1CC(=S)N2C[C@@H]3CCCN4CCC[C@@H]([C@H]34)[C@H]2C1	Dose-dependent effect	39.2	Non-toxic	29.3	4.85
O=C1C=CC[C@@H]2[C@H]3CCCN4CCC[C@@H](CN12)[C@@H]34 [SOPHOCARPINE]	Dose-dependent effect	> 200	Non-toxic	–	3.47
N[C@@H]1CC(=O)N2C[C@@H]3CCCN4CCC[C@@H]([C@H]34)[C@H]2C1	Dose-dependent effect	> 200	Non-toxic	–	6.54
S=C1C[C@@H](NCc2ccccc2)C[C@@H]2[C@H]3CCCN4CCC[C@@H](CN12)[C@@H]34	Dose-dependent effect	62	Non-toxic	33.9	8.39
CCN[C@@H]1CC(=S)N2C[C@@H]3CCCN4CCC[C@@H]([C@H]34)[C@H]2C1	Dose-dependent effect	23.5	Non-toxic	41.5	1.96
CN[C@@H]1CC(=S)N2C[C@@H]3CCCN4CCC[C@@H]([C@H]34)[C@H]2C1	Dose-dependent effect	93.2	Non-toxic	9.1	3.69
O=C1CCC[C@@H]2[C@H]3CCCN4CCC[C@@H](CN12)[C@@H]34 [MATRINE]	Dose-dependent effect	> 200	Non-toxic	–	5.11
S=C1C[C@@H](NCC2CC2)C[C@@H]2[C@H]3CCCN4CCC[C@@H](CN12)[C@@H]34	Dose-dependent effect	119	Non-toxic	16.2	7.83
CCCN[C@@H]1CC(=S)N2C[C@@H]3CCCN4CCC[C@@H]([C@H]34)[C@H]2C1	Dose-dependent effect	93.5	Non-toxic	9.6	3.4
OCCCN[C@@H]1CC(=S)N2C[C@@H]3CCCN4CCC[C@@H]([C@H]34)[C@H]2C1	Dose-dependent effect	53.8	Non-toxic	22.8	3.14
CC(C)N[C@@H]1CC(=S)N2C[C@@H]3CCCN4CCC[C@@H]([C@H]34)[C@H]2C1	Dose-dependent effect	52.3	Non-toxic	24	6.56
